Laboratory results from US20050054629A1, “Compounds and methods of treating cell proliferative diseases” (priority 2002, published 2005).
pIC50: −log10 of the molar value.

Tests used:
MCF-7 breast carcinoma = assay: Cytotoxicity assay (MTT), 6 days; type: cell-based; settings: Homo sapiens, MCF7, 144 h, 6 days of treatment, read-out: Toxicity 6d (IC 50, μM) MCF7
How it was run: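 Six-day continuous treatment (0–50 μM; final DMSO 1%), then MTT (0.5 mg/ml, 3 h, 37° C) with DMSO-dissolved formazan read at 550 nm. Surviving fraction and IC50 determined.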

HCT116 cells = assay: Anchorage-independent growth assay (soft agar / Matrigel); type: cell-based, human; settings: for effect on anchorage-independent growth: HCT116; for pIC50: Homo sapiens, HCT-116, 168 h, HCT116, 3-dimensional growth, 1 week
Description: In order to evaluate the effect of the compounds on the capacity of tumor cells to grow without anchorage, HCT116 cells were seeded either in agar or in Matrigel (BD, France). For 3D growth experiment in soft agar in 24-well plates, 5.10^3 HCT116 cells were resuspended in 250 μl of complete medium containing 0.3% soft-agar (Difco) and different concentrations of compound (0.1, 1, 10, 17.5, 25 and 50 μM). Cells were then poured on a solidified layer of medium containing 0.5% of soft-agar plus the compound at the same concentration than in the upper layer. Cells were incubated at 37° C. for 1 week before they were analysed using a phase contrast microscope (Nikon). For 3D growth experiment in Matrigel, 10^4 HCT116 cells were resuspended in 300 μl of complete medium containing 5 mg/ml Matrigel (BD, France) and different concentrations of compound (0.1, 1, 10, 17.5, 25 and 50 μM), and poured in 24-well plates. After solidification at 37° C. for 15 min., complete medium containing the compound was added to each well. Cells were incubated for 1 week before they were collected using Matrisperse (BD, France) according to the manufacturer's instructions. After recovery, alive cells were counted with trypan blue exclusion.

MDA-MB-231 cells [1] = assay: Matrigel invasion assay (Boyden chamber); type: cell-based, human; settings: for Invasion: MDA-MB-231, Boyden chamber, matrigel
How it was run: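 MDA-MB-231 cells were pretreated overnight with compound (1, 10, 17.5, 25, 50 μM). 10^5 cells in serum-free 0.1% BSA medium with compound were placed on 8 μm membranes coated with Matrigel (125 μg/cm^2), with 10% FBS plus compound below. After 6 h at 37 °C, cells on the filter underside were Diff-Quick stained and counted.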

Rac = assay: Rac-dependant signaling pathway analysis (reporter system); type: cell-based; set-up: key: −: no effect of the compound was observed; +: an effect of the compound was observed
Description: The impact of the compounds on Ras and Rac signaling pathways was analysed with two reporter systems described by Imler (Nature 1988) and Lin (Science, 1995) respectively on one hand, and by a colony formation assay in the presence of constitutively activated Ras (RasV12) and Rac (RacV12) on the other hand. For this latter experiment, fifty percent confluent NIH3T3 cells in a 10 cm diameter petri dish were transfected with 0.5 μg pSV2-RasV12 or 0.5 μg pEXV RacV12 plasmids plus 100 ng of pSV2-neomycin plasmid using Lipofectamine-Plus reagent (Invitrogen) according to the manufacturer's instructions. Forty-eight hours later, cells were trypsinised, splitted to ⅓, and incubated in the presence of complete medium supplemented with 400 μg/ml geneticin (Invitrogen) and different doses of compound (1, 10, 17.5, 25 and 50 μM) until emerging resistant clones appear (2-3 weeks). The medium was renewed every 3 days. Colonies with a minimum of 50 cells were counted after staining with Fuschin 2%.

NIH3T3 = assay: Cytoskeleton analysis, actin staining (FITC-phalloidin); type: cell-based, mouse; settings: for Cell architecture modification actin staining (R: ruffles; FC: focal complexes) NIH3T3: 24 h treatment; for concentration at which specific inhibition of membrane ruffles and increase in the number of stress fibers was observed: NIH3T3, actin staining
How it was run: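 Subconfluent cells on coverslips were exposed to compound at 1, 10, 17.5, 25 or 50 μM, or to vehicle, for 24 h. They were then formaldehyde-fixed, Triton-permeabilized and blocked. Actin was stained with 0.5 μg/ml FITC-phalloidin for 1 h and imaged by inverted fluorescence microscopy.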

MDA-MB-231 cells [2] = assay: Migration assay (Boyden chamber, non-coated filters); type: cell-based, human; settings: for Migration: MDA-MB-231, Boyden chamber
How it was run: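 MDA-MB-231 cells were pretreated overnight with compound (1, 10, 17.5, 25 and 50 μM), then 10^5 cells placed in the upper chamber in serum-free medium with 0.1% BSA plus compound; lower chamber held 10% FBS plus compound as chemoattractant. After 6 hours at 37° C on non-coated filters, migrated underside cells were stained and counted by microscopy.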

MMP-2 = assay: Gelatin zymography; type: cell-based, human; settings: MDA-MB-231 supernatant
Description: (§1) The activity of the metalloproteases MMP-2 and MMP-9 was assayed using gelatinolytic zymography according to Lambert (Surgery 1997). Briefly, MDA-MB-231 cells were incubated overnight in serum-free medium supplemented with ITS liquid supplement (Sigma) with different concentrations of compound (1, 10, 17.5, 25 and 50 μM). Supernatant was collected and concentrated with Ultrafree 30 kDA (Millipore). Equal amount of proteins, as determined by Bradford measurement, were loaded onto a 10% w/v polyacrylamide gel containing 1% gelatin and 0.1% SDS (Novex). After electrophoresis, gels were washed in Novex Zymogram Renaturing buffer for 30 min at room temperature and incubated overnight at 37° C. in Novex Zymogram developing buffer. Gels were stained in Coomassie Brilliant Blue G-250, and the gelatinolytic activity was visualized as a clear band against the blue background of the stained gelatin.

MMP-9 = assay: Gelatin zymography; type: cell-based, human; settings: MDA-MB-231 supernatant
Description: as §1

With CCCc1c(OCCCCCOc2coc(CO)cc2=O)ccc(Cl)c1Cl [EH22900, 5-[5-(3,4-Dichloro-2-propylphenyloxy)pentyloxy]-2-(hydroxymethyl)-4H-pyran-4-one] the IC50 (MCF-7 breast carcinoma) was 50 µM, the “effect on anchorage-independent growth” value (HCT116 cells) was “strongest effect” and the pIC50 (HCT116 cells) was over 6.00. The “concentration giving significant inhibition of invasive properties of MDA-MB-231 cells” value (MDA-MB-231 cells [1]) was 17.5 µM, the Invasion (MDA-MB-231 cells [1]) was “Decrease” and the “Small GTPases activities Rac” value (Rac) was “−”. For the same compound, the “Cell architecture modification actin staining (R: ruffles; FC: focal complexes) NIH3T3” value (NIH3T3) was “R-, FC+”, the “concentration at which specific inhibition of membrane ruffles and increase in the number of stress fibers was observed” value (NIH3T3) was 10 µM and the “concentration at which inhibition of serum-induced migration was observed” value (MDA-MB-231 cells [2]) was 25 µM. For the same compound, the Migration (MDA-MB-231 cells [2]) was “inhibition”, the “concentration inhibiting MMP-2 in a dose-dependant manner (zymogram gel)” value (MMP-2) was 5 µM and the “concentration inhibiting MMP-9 in a dose-dependant manner (zymogram gel)” value (MMP-9) was 5 µM.

C/C=C/c1oc(CO)cc(=O)c1OCCCCCOc1ccc(Cl)c(Cl)c1CCC [EH31101, (E)-3-[5-(3,4-Dichloro-2-propylphenyloxy)pentyloxy]-6-(hydroxymethyl)-2-(propen-1-yl)-4H-pyran-4-one] was tested, and the IC50 (MCF-7 breast carcinoma) was 25 µM, the “effect on anchorage-independent growth” value (HCT116 cells) was “significant, although less severe, effect” and the pIC50 (HCT116 cells) was over 6.00. The “concentration giving an increase in invasive properties of MDA-MB-231 cells” value (MDA-MB-231 cells [1]) was 10 µM, the Invasion (MDA-MB-231 cells [1]) was “Increase” and the “Small GTPases activities Rac” value (Rac) was “−”. The “Cell architecture modification actin staining (R: ruffles; FC: focal complexes) NIH3T3” value (NIH3T3) was “R-, FC+”, the “concentration at which specific inhibition of membrane ruffles and increase in the number of stress fibers was observed” value (NIH3T3) was 50 µM and the “concentration at which inhibition of serum-induced migration was observed” value (MDA-MB-231 cells [2]) was 10 µM. The Migration (MDA-MB-231 cells [2]) was “no effect”, the “concentration inhibiting MMP-2 in a dose-dependant manner (zymogram gel)” value (MMP-2) was 0.1 µM and the “concentration inhibiting MMP-9 in a dose-dependant manner (zymogram gel)” value (MMP-9) was 0.1 µM.
